Data set [1] concerns panel of HIV-1 ENV-pseudoviruses (subtype A, A/D, A2/D, A/E, A/G, B, C and D). As to the kind of experiment: microbe, parasite or virus in culture. The format is cell-based. As to conditions: Human immunodeficiency virus 1, TZM-bl.
A further data set addresses T1, HIV-1 Integrase (Human immunodeficiency virus type 1 group M subtype B, UniProt P04585).
T1 construct: HIV-1 Integrase Assay Kit from ExpressBio; purchased ExpressBio (Thurnmont, Md.)
As to the kind of experiment: HIV-1 Integrase Assay (ExpressBio kit). It is filed as biochemical. The protocol:
HIV-1 Integrase was performed as per the protocol in the HIV-1 Integrase Assay Kit from ExpressBio (Thurnmont, Md.). (See Table 3)

Another data set has as its system TZM-bl cells. Kind of data set: Cytotoxicity in TZM-bl cells (XTT). The format is cell-based. The note with it: XTT, 3 days. The procedure: The cytotoxicity of test compounds in TZM-bl cells was also measured by the XTT method described previously^7. […] The soluble intracellular formazan was quantitated colorimetrically at 450 nm 4 h later. The percent of cytotoxicity and the CC50 values were calculated as above. (See Table 4)

Data set [2] concerns cell-to-cell fusion mediated by HIV-1 (HIV-1HXB2 Env). It is filed as cell-based. The note with it: Cell-Cell fusion Assay.
Method: To assess the ability of NBD-compounds to block cell-to-cell fusion mediated by HIV-1 we performed cell fusion assay as previously described 3^1-3 with some modifications. […] Following fusion of the two cell lines Tat induce the expression of β-gal enzyme. […] The percent inhibition and the IC50 values were calculated using the GraphPad Prism software.
The subject of data set [3] is lab-adapted and primary HIV-1 isolates. As to the kind of experiment: Multi-cycle infection assay in PBMC (p24 ELISA). Background: An ELISA detects its analyte on a solid surface through an enzyme-linked reagent.
Method: PBMCs were isolated from the blood of healthy donors at the New York Blood Center by standard density gradient centrifugation using Histopaque-1077 (Sigma-Aldrich). The cells were cultured at 37° C. for 2 hr. […] The PHA-stimulated cells (5×10^4 cells/well) were infected with lab-adapted and primary HIV-1 isolates at 500 TCID50 (0.01 MOI) in the absence or presence of inhibitors at graded concentrations. Culture media were replaced every 3 days with fresh media. The supernatants were collected 7 days post-infection and tested for p24 antigen by ELISA. The percent inhibition of p24 production and IC50 values were calculated by the GraphPad Prism software.
The subject of the next data set is MT-2 cells. Kind of data set: Cytotoxicity in MT-2 cells (XTT). The format is cell-based. As to conditions: 4 days. The protocol: Cytotoxicity of test compounds in MT-2 cells was measured a by colorimetric method using XTT [(sodium 3′-(1-(phenylamino)-carbonyl)-3,4-tetrazolium-bis(4-methoxy-6-nitro) bezenesulfonic acid hydrate)] (PolySciences) as previously described^7. Briefly, 100 μl of a test compound at graded concentrations was added to an equal volume of cells (1×10^5 cells/ml) in 96 well plates followed by incubation at 37° C. for 4 days, which ran parallel to the neutralization assay in MT-2. Following the addition of XTT the soluble intracellular formazan was quantitated colorimetrically at 450 nm 4 h later. […] (See Table 4)
In general terms: Tetrazolium assays rely on reduction of a dye to a coloured formazan, in cell work by metabolically active cells.

The next data set deals with PBMC. As to the kind of experiment: Cytotoxicity in PBMC (XTT). It is filed as cell-based. As to conditions: 7 days. The protocol:
For the PBMC toxicity assay we used 5×10^5 cells/ml and the cytotoxicity of the compounds was measured after 7 days of incubation as previously reported^8. Following the addition of XTT the soluble intracellular formazan was quantitated colorimetrically at 450 nm 4 h later. The percent of cytotoxicity and the CC50 values were calculated as above. (See Table 4)

Data set [4] deals with laboratory-adapted HIV-1 strains. Kind of data set: Multi-cycle infection assay in MT-2 cells (p24 ELISA). As to conditions: read-out: IC50 (μm).
Method: The inhibitory activity of test compounds on infection by laboratory-adapted HIV-1 strains was determined as previously described^6. Briefly, 1×10^4 MT-2 cells were infected with HIV-1IIIB and other lab-adapted HIV-1 at 100 TCID50 (0.01 MOI) in the presence or absence of test compounds at graded concentrations overnight. The culture supernatants were then removed and fresh media were added. On the fourth day post-infection, 100 μl of culture supernatants were collected from each well, mixed with equal volume of 5% Triton X-100 and tested for p24 antigen by “sandwich” ELISA.
The mark [5] stands for this setting: read-out: IC50 (μm), laboratory strain BaL, subtype B, co-receptor R5.
The mark [6] stands for this setting: read-out: IC50 (μm), laboratory strain SF162, subtype B, co-receptor R5.
Where [7] appears, read: read-out: IC50 (μm), primary isolate 92US657, subtype B, co-receptor R5.
Where [8] appears, read: read-out: IC50 (μm), primary isolate 93MW959, subtype C, co-receptor R5.
Where [9] appears, read: read-out: IC50 (μm), primary isolate RU570, subtype G, co-receptor R5.
[10] abbreviates: RT-resistant isolate AZT-R, subtype B, MT-2, co-receptor X4.
Where [11] appears, read: fusion resistant isolate pNL4-3 gp41(36G) V38E, N42S, subtype B, MT-2, co-receptor X4.
The mark [12] stands for this setting: laboratory strain MN, subtype B, MT-2, co-receptor X4.
The mark [13] stands for this setting: laboratory strain SF2, subtype B, MT-2, co-receptor R5X4.
The mark [14] stands for this setting: protease resistant isolate HIV-1RF/L-323-12-3, subtype B, MT-2, co-receptor X4.

Where two headings read alike, the source gives them in different places.

As to `Cc1nc(C(NC(=O)c2ccc(-c3ccc(Cl)cc3)[nH]2)C2CCCCN2)sc1CO` (single isomer, unassigned) [Compound 17], the IC50 in data set [1] (read-out: IC50 (μM) ± S.D., subtype A2/D, NIH # 11905, ENV QG393.60M.ENV.A1) was 0.41 ± 0.2 µM; against HIV-1 Integrase, > 100 µM.
A word on the CC50: it is the concentration giving 50% cytotoxicity. On to `Cc1nc(C(CN)NC(=O)c2ccc(-c3ccc(Cl)c(F)c3)[nH]2)sc1CO` (single isomer, unassigned) [Compound 41], for which the IC50 is 1 µM in data set [1] (read-out: IC50 (μM) ± S.D., subtype C, NIH # 11312, ENV ZM249M.PL1) and > 100 µM against HIV-1 Integrase. Besides, the CC50 with TZM-bl cells was ≥ 33 µM.
In data set [2], `COc1ccnc2[nH]cc(C(=O)C(=O)N3CCN(C(=O)c4ccccc4)C[C@H]3C)c12` [BMS-378806] showed an IC50 of 14 nM.
Take `Cc1nc(C(NC(=O)C(=O)Nc2ccc(Cl)cc2)C2CCCCN2)sc1CO` (stereo not shown) [NBD-09027]: the IC50 in data set [3] (setting [5]) was 35.8 ± 1.2 µM; in data set [3] (setting [6]), 12.7 ± 0.7 µM; in data set [3] (setting [7]), 8.6 ± 0.9 µM; in data set [3] (read-out: IC50 (μm), primary isolate 93IN101, subtype C, co-receptor R5), > 87 µM; in data set [3] (setting [8]) it was > 43.5 µM; in data set [3] (read-out: IC50 (μm), primary isolate BCF02, (Group 0), co-receptor R5), ~87 µM. Further, the IC50 in data set [3] (setting [9]) worked out at 8.5 ± 0.8 µM; in data set [4] (setting [10]), 4.4 ± 1.1 µM; in data set [4] (setting [11]), 5.8 ± 0.3 µM; in data set [4] (laboratory strain IIIB, subtype B, MT-2, co-receptor X4), 4.7 ± 0.6 µM; in data set [4] (setting [12]), 4 µM; in data set [4] (setting [13]) it was 5.7 ± 0.9 µM. In data set [4] (setting [14]), the IC50 came to 14.7 ± 2.3 µM. Also, the CC50 is > 108 µM with MT-2 cells and > 160 µM in the data set on PBMC.
Take NBD-556: the IC50 in data set [3] (read-out: IC50 (μm), laboratory strain 89.6, subtype B, co-receptor R5X4) is 4.8 ± 1 µM; in data set [3] (setting [5]) it was ≥ 118 µM; in data set [3] (setting [6]), 48.9 ± 7.3 µM; in data set [3] (setting [7]), 48 ± 1.65 µM; in data set [3] (setting [8]), 57.2 ± 8.7 µM; in data set [3] (read-out: IC50 (μm), primary isolate 93TH060, subtype E, co-receptor R5) it was > 45 µM. Moreover, the IC50 is 19.5 ± 2.3 µM in data set [3] (setting [9]); > 200 µM on HIV-1 Integrase; 58 ± 14.3 µM in data set [4] (setting [10]); 11 µM in data set [4] (setting [11]); 15.9 ± 1.6 µM in data set [4] (setting [12]); 18.7 ± 1.3 µM in data set [4] (laboratory strain RF, subtype B, MT-2, co-receptor R5X4). In addition, the IC50 is ≥ 118 µM in data set [4] (setting [13]) and > 59 µM in data set [4] (setting [14]). For the same molecule, the cytotoxic concentration (CC50) with MT-2 cells and in the data set on PBMC was > 280 µM in each case.
